# Source: patent publication US9023635B2, “Bacterial methods” (Imperial Innovations Limited, priority 2010, dated 2015)
# Key:
# [1] = system: PrkC-SAV expressing spores with biotinylated azide and alkyne; details: all click reaction components present; FIG. 26
# Description: For all PrkC-SAV spore reactions, 100 nM of biotinylated ‘sensor’ was added to 100 μl reactions of spores at a concentration of OD600 ˜1. […] All reactions were carried out at room temperature. Controls for PrkC-SAV spore experiments omitted each reagent/parameter tested and the affect on germination was assessed. After addition of germinant, terbium was added to a final concentration of 5 μM and fluorescence visualized on a UV transilluminator (Biorad), at periodic time points. A DPA standard was imaged using known concentrations and correlated to fluorescent pixels.
# PrkC-SAV expressing spores were incubated in the presence of biotinylated azide and alkyne groups with copper (FIG. 25). DPA release, i.e. germination, was measured by fluorescence in the presence of terbium as described in previous Examples.
# [2] = system: bacterial spores in the absence of the chimeric protein; assay: Germination of bacterial spores in the absence of the prkC-EPOR chimeric protein; type: cell-based, Bacillus subtilis
# [3] = system: bacterial spore with prkC intracellular and transmembrane domain and the extracellular EPOR domain; assay: Germination of bacterial spores expressing chimeric prkC-EPOR receptor; type: cell-based, Bacillus subtilis
# [4] = system: prkC-SAV spores with complementary biotinylated oligos; assay: Germination of prkC-SAV spores with structure-switching anti-thrombin aptamers; type: cell-based; details: FIG. 30
# Description: Hall et al (2009) describe a method for protein detection using structure switching aptamers. The well-known example of thrombin as a target, described in the Introduction by Hall et al, was utilised to assess the use of bacterial spores as an alternative readout to release of a quencher from a fluorophore, as illustrated in FIGS. 29-30.
# [5] = system: prkC-SAV spores with biotinylated aptamers; assay: Germination of prkC-SAV spores with biotinylated anti-PDGF aptamers; type: cell-based; details: FIG. 28
# Description: Presence of the target protein results in binding of the protein by the aptamers, dimerisation of the prkC proteins, and germination of the spores, which can be detected, for example, using methods described in previous Examples.
molecule,measurement,setting,value
"O=S(=O)([O-])[O-].[Cu+2] [copper, copper (II) sulfate]",germination (DPA release) versus controls omitting azide/alkyne or copper,[1],significant increase in germination
erythropoietin [EPO],germination of spores,[2],does not stimulate the germination
same,germination efficiency with increased concentration,"[3]; FIG. 13, increased concentration of EPO",increase in germination efficiency
same,germination of spores,[3]; spores expressing prkC-EPOR chimera,stimulation of germination
thrombin,target protein concentration of optimal detection,[4],100 nm
"PDGF-BB: platelet derived growth factor, in the BB homodimer form (protein, UniProt P01127 82-190, looked up, BB homodimer, platelet derived growth factor, in the BB homodimer form) Platelet-derived growth …: SLGSLTIAEPAMIAECKTRTEVFEISRRLIDRTNANFLVWPPCVEVQRCSGCCNNRNVQCRPTQVQLRPVQVRKIEIVRKKPIFKKATVTLEDHLACKCETVAAARPVT",target protein concentration of optimal detection,[5],0.1 nM
